Data: ChEMBL document CHEMBL4311972, “Discovery of a benzothiophene-flavonol halting miltefosine and antimonial drug resistance in Leishmania parasites through the application of medicinal chemistry, screening and genomics” (Eur J Med Chem, 2019)

tested on: Trypanosoma brucei; test: Antitrypanosomal activity against Trypanosoma brucei bloodstream form assessed as parasite growth inhibition incubated for 72 hrs by resazurin dye based assay; type: functional, organism-based; settings: Trypanosoma brucei, 72 h; read-out: EC50; call rule not given here

| Structure (SMILES) | EC50 [µM] |
| --- | --- |
| COc1ccc2c(=O)c(O)c(-c3cc(C)cs3)oc2c1 | 3 |
| Cc1ccc2oc(-c3ccc(C)s3)c(O)c(=O)c2c1 | 3.3 |
| Cc1ccc2c(=O)c(O)c(-c3csc4ccccc34)oc2c1 | 4.5 |
| COc1ccc2c(=O)c(O)c(-c3csc4ccccc34)oc2c1 | 3.1 |

These reach a lower EC50. Values come first.

| EC50 [µM] | Structure (SMILES) |
| --- | --- |
| 2.8 | Cc1csc(-c2oc3ccc(C)cc3c(=O)c2O)c1 |
| 2.6 | O=c1c(O)c(-c2csc3ccccc23)oc2ccccc12 |
| 0.4 | COc1ccc2c(=O)c(O)c(-c3ccc4c(c3)OCO4)oc2c1 |

target: CYP2C19 (Homo sapiens, UniProt P33261); test: Inhibition of human microsomal CYP2C19 expressed in baculovirus infected insect cells at 10 uM using luciferin-H EGE as substrate preincubated with enzyme/substrate mixture for 30 mins followed by further incubation with NADPH for 30 mins by CYP450 luciferase Glo assay relative to control; type: ADME; settings: probe luciferin-H EGE
Sequence (P33261 whole entry): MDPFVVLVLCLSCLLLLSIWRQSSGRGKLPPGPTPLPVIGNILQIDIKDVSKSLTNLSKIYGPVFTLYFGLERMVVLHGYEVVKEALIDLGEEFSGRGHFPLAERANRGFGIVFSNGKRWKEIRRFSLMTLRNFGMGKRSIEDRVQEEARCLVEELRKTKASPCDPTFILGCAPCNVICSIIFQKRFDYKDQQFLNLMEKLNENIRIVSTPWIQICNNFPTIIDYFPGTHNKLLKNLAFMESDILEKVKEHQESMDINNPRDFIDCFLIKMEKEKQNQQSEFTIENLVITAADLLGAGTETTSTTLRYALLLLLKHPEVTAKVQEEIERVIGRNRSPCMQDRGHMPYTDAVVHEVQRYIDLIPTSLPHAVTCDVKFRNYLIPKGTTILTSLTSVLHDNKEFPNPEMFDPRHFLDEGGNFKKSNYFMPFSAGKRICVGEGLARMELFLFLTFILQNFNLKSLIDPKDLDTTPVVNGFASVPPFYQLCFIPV

| Structure (SMILES) | inhibition at 0.5 h, 10 µM [%] |
| --- | --- |
| COc1ccc2c(=O)c(O)c(-c3cc(C)cs3)oc2c1 | 77.9 |
| Cc1ccc2oc(-c3ccc(C)s3)c(O)c(=O)c2c1 | 19.1 |
| Cc1ccc2c(=O)c(O)c(-c3csc4ccccc34)oc2c1 | 39.1 |
| COc1ccc2c(=O)c(O)c(-c3csc4ccccc34)oc2c1 | 62.3 |

The remaining lines, values ahead:

| inhibition at 0.5 h, 10 µM [%] | Structure (SMILES) |
| --- | --- |
| 26.2 | Cc1csc(-c2oc3ccc(C)cc3c(=O)c2O)c1 |
| 31.3 | O=c1c(O)c(-c2csc3ccccc23)oc2ccccc12 |
| 80.3 | COc1ccc2c(=O)c(O)c(-c3ccc4c(c3)OCO4)oc2c1 |

target: hERG (KCNH2) (Homo sapiens, UniProt Q12809); test: Inhibition of human ERG at 10 uM incubated for 2 hrs by fluorescence polarization assay relative to control; settings: not given
Sequence (Q12809 whole entry): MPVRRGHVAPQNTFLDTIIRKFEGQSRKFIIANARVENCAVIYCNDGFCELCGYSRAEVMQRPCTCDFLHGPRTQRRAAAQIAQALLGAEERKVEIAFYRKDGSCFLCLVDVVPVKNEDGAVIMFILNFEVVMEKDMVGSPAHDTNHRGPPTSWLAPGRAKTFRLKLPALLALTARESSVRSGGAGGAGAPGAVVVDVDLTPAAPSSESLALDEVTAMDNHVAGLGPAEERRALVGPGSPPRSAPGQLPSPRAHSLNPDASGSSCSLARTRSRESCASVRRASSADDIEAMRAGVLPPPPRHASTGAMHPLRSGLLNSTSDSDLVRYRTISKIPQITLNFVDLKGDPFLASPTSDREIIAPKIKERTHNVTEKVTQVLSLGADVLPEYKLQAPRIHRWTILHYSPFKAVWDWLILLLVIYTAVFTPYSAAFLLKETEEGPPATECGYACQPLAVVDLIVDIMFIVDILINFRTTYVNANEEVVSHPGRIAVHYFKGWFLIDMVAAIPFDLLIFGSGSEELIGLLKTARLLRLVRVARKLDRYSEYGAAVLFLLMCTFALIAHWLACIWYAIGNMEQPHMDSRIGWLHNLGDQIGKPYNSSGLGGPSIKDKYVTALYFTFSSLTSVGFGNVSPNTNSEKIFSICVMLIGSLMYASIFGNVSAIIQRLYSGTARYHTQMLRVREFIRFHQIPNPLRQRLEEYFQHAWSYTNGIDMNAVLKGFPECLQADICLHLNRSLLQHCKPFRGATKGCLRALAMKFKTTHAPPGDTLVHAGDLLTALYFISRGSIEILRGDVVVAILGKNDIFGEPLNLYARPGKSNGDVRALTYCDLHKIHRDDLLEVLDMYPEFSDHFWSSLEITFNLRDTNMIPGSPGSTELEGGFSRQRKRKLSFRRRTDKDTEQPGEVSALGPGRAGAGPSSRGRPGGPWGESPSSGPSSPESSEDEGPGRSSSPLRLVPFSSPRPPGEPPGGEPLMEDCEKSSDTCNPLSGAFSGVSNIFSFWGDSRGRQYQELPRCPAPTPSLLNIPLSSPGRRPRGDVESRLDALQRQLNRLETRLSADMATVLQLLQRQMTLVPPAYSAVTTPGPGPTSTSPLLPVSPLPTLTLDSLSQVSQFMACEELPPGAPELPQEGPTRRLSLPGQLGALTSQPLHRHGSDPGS

| Structure (SMILES) | inhibition at 2 h, 10 µM [%] |
| --- | --- |
| Cc1csc(-c2oc3ccc(C)cc3c(=O)c2O)c1 | 13.2 |
| COc1ccc2c(=O)c(O)c(-c3cc(C)cs3)oc2c1 | 5.93 |
| Cc1ccc2oc(-c3ccc(C)s3)c(O)c(=O)c2c1 | 34.3 |
| Cc1ccc2c(=O)c(O)c(-c3csc4ccccc34)oc2c1 | -15 |
| COc1ccc2c(=O)c(O)c(-c3ccc4c(c3)OCO4)oc2c1 | 9.49 |
| COc1ccc2c(=O)c(O)c(-c3csc4ccccc34)oc2c1 | -4.35 |
| O=c1c(O)c(-c2csc3ccccc23)oc2ccccc12 | -22.7 |

tested on: not listed separately; test: Cytotoxicity against human A549 cells assessed as cell growth at […] incubated for 48 hrs by Celltiter-Glo luminescence assay relative to control; type: cell-based; design: dose or concentration left out as unconfirmed; settings: read-out: Activity

| Structure (SMILES) | viability at 48 h [%] |
| --- | --- |
| Cc1csc(-c2oc3ccc(C)cc3c(=O)c2O)c1 | 15.3 |
| COc1ccc2c(=O)c(O)c(-c3cc(C)cs3)oc2c1 | 80.9 |
| Cc1ccc2oc(-c3ccc(C)s3)c(O)c(=O)c2c1 | 30.9 |
| Cc1ccc2c(=O)c(O)c(-c3csc4ccccc34)oc2c1 | 50.1 |
| COc1ccc2c(=O)c(O)c(-c3ccc4c(c3)OCO4)oc2c1 | 43.2 |
| COc1ccc2c(=O)c(O)c(-c3csc4ccccc34)oc2c1 | 53.9 |
| O=c1c(O)c(-c2csc3ccccc23)oc2ccccc12 | 50.3 |

tested on: 786-0; test: Mitochondrial toxicity in human 786-0 cells at 10 uM incubated with compound for 6 hrs followed by incubation with MitoTracker Red chloromethyl-X-rosamine dye for 45 mins by imaging analysis; type: cell-based; settings: 786-0, 6 h

| Structure (SMILES) | Activity [%] |
| --- | --- |
| Cc1csc(-c2oc3ccc(C)cc3c(=O)c2O)c1 | -13.79 |
| COc1ccc2c(=O)c(O)c(-c3cc(C)cs3)oc2c1 | 0.01 |
| Cc1ccc2oc(-c3ccc(C)s3)c(O)c(=O)c2c1 | -15.83 |
| Cc1ccc2c(=O)c(O)c(-c3csc4ccccc34)oc2c1 | -19.4 |
| COc1ccc2c(=O)c(O)c(-c3ccc4c(c3)OCO4)oc2c1 | 6.41 |
| COc1ccc2c(=O)c(O)c(-c3csc4ccccc34)oc2c1 | -22.67 |
| O=c1c(O)c(-c2csc3ccccc23)oc2ccccc12 | -22.23 |

target: CYP3A4 (Homo sapiens, UniProt P08684); test: Inhibition of human microsomal CYP3A4 expressed in baculovirus infected insect cells at 10 uM using luciferin-IPA as substrate preincubated with enzyme/substrate mixture for 30 mins followed by further incubation with NADPH for 30 mins by CYP450 luciferase Glo assay relative to control; type: ADME; settings: probe luciferin-IPA
Sequence (P08684 whole entry): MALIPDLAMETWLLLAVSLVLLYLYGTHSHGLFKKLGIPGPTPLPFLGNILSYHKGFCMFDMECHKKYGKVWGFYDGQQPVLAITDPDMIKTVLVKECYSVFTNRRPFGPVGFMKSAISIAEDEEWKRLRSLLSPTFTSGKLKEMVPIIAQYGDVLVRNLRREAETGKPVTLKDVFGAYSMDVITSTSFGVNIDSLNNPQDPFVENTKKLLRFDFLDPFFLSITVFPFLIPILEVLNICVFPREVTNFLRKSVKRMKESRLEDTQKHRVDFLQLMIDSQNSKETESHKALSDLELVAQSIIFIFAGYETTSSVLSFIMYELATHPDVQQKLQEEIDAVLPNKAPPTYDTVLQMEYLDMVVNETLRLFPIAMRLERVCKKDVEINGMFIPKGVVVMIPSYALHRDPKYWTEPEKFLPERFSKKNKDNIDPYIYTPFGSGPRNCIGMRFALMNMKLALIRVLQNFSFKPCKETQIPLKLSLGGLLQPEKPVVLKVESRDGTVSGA

| Structure (SMILES) | inhibition at 0.5 h, 10 µM [%] |
| --- | --- |
| COc1ccc2c(=O)c(O)c(-c3cc(C)cs3)oc2c1 | 12.5 |
| Cc1ccc2oc(-c3ccc(C)s3)c(O)c(=O)c2c1 | 10.4 |
| Cc1ccc2c(=O)c(O)c(-c3csc4ccccc34)oc2c1 | 13.2 |
| COc1ccc2c(=O)c(O)c(-c3csc4ccccc34)oc2c1 | 5.81 |

Further lines, results first:

| inhibition at 0.5 h, 10 µM [%] | Structure (SMILES) |
| --- | --- |
| 23.5 | Cc1csc(-c2oc3ccc(C)cc3c(=O)c2O)c1 |
| -1.84 | O=c1c(O)c(-c2csc3ccccc23)oc2ccccc12 |
| 55.5 | COc1ccc2c(=O)c(O)c(-c3ccc4c(c3)OCO4)oc2c1 |

target: T1, CYP1A2 (Homo sapiens, UniProt P05177); test: Inhibition of human microsomal CYP1A2 expressed in baculovirus infected insect cells at 10 uM using luciferin-1A2 as substrate preincubated with enzyme/substrate mixture for 30 mins followed by further incubation with NADPH for 30 mins by CYP450 luciferase Glo assay relative to control; type: ADME; settings: probe luciferin-1A2
T1 sequence (P05177 whole entry): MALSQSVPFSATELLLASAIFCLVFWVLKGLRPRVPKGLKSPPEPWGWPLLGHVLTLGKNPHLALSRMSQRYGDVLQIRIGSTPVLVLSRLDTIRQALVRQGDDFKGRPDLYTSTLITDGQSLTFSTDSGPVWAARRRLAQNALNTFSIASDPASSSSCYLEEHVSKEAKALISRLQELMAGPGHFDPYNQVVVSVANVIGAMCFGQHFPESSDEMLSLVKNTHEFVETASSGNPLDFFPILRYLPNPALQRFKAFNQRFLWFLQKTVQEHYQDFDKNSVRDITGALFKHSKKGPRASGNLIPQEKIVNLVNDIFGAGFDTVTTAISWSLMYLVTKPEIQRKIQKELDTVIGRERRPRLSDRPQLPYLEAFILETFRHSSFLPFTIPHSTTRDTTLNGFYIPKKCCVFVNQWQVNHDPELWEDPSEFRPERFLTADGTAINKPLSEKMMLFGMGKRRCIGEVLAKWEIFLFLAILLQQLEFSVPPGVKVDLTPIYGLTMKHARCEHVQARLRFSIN

| Structure (SMILES) | inhibition at 0.5 h, 10 µM [%] |
| --- | --- |
| COc1ccc2c(=O)c(O)c(-c3cc(C)cs3)oc2c1 | 103 |
| Cc1ccc2oc(-c3ccc(C)s3)c(O)c(=O)c2c1 | 96.5 |
| Cc1ccc2c(=O)c(O)c(-c3csc4ccccc34)oc2c1 | 94.2 |
| COc1ccc2c(=O)c(O)c(-c3csc4ccccc34)oc2c1 | 90 |

Second part, the compound after the results:

| inhibition at 0.5 h, 10 µM [%] | Structure (SMILES) |
| --- | --- |
| 98.8 | Cc1csc(-c2oc3ccc(C)cc3c(=O)c2O)c1 |
| 97.7 | O=c1c(O)c(-c2csc3ccccc23)oc2ccccc12 |
| 101 | COc1ccc2c(=O)c(O)c(-c3ccc4c(c3)OCO4)oc2c1 |

tested on: not listed separately; test: Selectivity index, ratio of CC50 for human THP1 cells to EC50 for Trypanosoma brucei bloodstream form; type: toxicity; settings: read-out: Ratio CC50/EC50

| Structure (SMILES) | selectivity ratio |
| --- | --- |
| Cc1csc(-c2oc3ccc(C)cc3c(=O)c2O)c1 | 36 |
| COc1ccc2c(=O)c(O)c(-c3cc(C)cs3)oc2c1 | 8 |
| Cc1ccc2oc(-c3ccc(C)s3)c(O)c(=O)c2c1 | 7 |
| COc1ccc2c(=O)c(O)c(-c3ccc4c(c3)OCO4)oc2c1 | 250 |

target: CYP2C9 (Homo sapiens, UniProt P11712); test: Inhibition of human microsomal CYP2C9 expressed in baculovirus infected insect cells at 10 uM using luciferin-H as substrate preincubated with enzyme/substrate mixture for 30 mins followed by further incubation with NADPH for 30 mins by CYP450 luciferase Glo assay relative to control; type: ADME; settings: probe luciferin-H
Sequence (P11712 whole entry): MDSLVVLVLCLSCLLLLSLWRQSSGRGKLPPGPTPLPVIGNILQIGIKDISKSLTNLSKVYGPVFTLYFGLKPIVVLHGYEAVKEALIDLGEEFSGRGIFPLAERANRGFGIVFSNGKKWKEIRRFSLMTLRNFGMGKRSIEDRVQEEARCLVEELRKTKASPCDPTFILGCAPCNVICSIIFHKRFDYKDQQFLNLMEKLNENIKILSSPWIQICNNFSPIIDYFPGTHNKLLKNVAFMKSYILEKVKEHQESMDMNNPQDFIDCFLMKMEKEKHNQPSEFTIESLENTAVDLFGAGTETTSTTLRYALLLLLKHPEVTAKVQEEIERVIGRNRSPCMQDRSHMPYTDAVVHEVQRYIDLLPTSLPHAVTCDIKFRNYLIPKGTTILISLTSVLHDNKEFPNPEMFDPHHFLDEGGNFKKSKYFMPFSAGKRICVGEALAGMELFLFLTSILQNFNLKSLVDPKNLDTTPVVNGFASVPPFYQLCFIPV

| Structure (SMILES) | inhibition at 0.5 h, 10 µM [%] |
| --- | --- |
| COc1ccc2c(=O)c(O)c(-c3cc(C)cs3)oc2c1 | 59.6 |
| Cc1ccc2oc(-c3ccc(C)s3)c(O)c(=O)c2c1 | 6.64 |
| Cc1ccc2c(=O)c(O)c(-c3csc4ccccc34)oc2c1 | 37 |
| COc1ccc2c(=O)c(O)c(-c3csc4ccccc34)oc2c1 | 28.1 |

Results, then the compound that gave them:

| inhibition at 0.5 h, 10 µM [%] | Structure (SMILES) |
| --- | --- |
| 35.1 | Cc1csc(-c2oc3ccc(C)cc3c(=O)c2O)c1 |
| 28.9 | O=c1c(O)c(-c2csc3ccccc23)oc2ccccc12 |
| 72.7 | COc1ccc2c(=O)c(O)c(-c3ccc4c(c3)OCO4)oc2c1 |

target: CYP2D6 (Homo sapiens, UniProt P10635); test: Inhibition of human microsomal CYP2D6 expressed in baculovirus infected insect cells at 10 uM using luciferin-ME as substrate preincubated with enzyme/substrate mixture for 30 mins followed by further incubation with NADPH for 30 mins by CYP450 luciferase Glo assay relative to control; type: ADME; settings: probe luciferin-ME
Sequence (P10635 whole entry): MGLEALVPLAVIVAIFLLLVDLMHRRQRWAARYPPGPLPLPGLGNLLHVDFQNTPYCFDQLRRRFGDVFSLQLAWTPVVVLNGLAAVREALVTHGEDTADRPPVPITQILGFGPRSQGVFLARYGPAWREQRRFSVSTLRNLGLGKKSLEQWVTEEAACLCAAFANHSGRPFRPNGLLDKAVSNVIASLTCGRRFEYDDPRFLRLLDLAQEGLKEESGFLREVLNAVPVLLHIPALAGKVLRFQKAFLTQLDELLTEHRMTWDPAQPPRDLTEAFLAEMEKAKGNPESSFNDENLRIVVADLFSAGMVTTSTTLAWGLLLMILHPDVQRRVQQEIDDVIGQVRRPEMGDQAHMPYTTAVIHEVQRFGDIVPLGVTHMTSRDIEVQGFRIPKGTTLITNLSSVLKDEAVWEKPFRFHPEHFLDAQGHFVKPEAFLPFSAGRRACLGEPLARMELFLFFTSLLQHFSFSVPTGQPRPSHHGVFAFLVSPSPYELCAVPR

| Structure (SMILES) | inhibition at 0.5 h, 10 µM [%] |
| --- | --- |
| COc1ccc2c(=O)c(O)c(-c3cc(C)cs3)oc2c1 | 33.6 |
| Cc1ccc2oc(-c3ccc(C)s3)c(O)c(=O)c2c1 | 22.6 |
| Cc1ccc2c(=O)c(O)c(-c3csc4ccccc34)oc2c1 | 28.1 |
| COc1ccc2c(=O)c(O)c(-c3csc4ccccc34)oc2c1 | 20.3 |

More lines, now with the values ahead:

| inhibition at 0.5 h, 10 µM [%] | Structure (SMILES) |
| --- | --- |
| 25.3 | Cc1csc(-c2oc3ccc(C)cc3c(=O)c2O)c1 |
| 6.45 | O=c1c(O)c(-c2csc3ccccc23)oc2ccccc12 |
| 105 | COc1ccc2c(=O)c(O)c(-c3ccc4c(c3)OCO4)oc2c1 |

tested on: Leishmania infantum; test: Antileishmanial activity against luciferase expressing intracellular amastigote stage of Leishmania infantum infected in human THP1 cells assessed as parasite growth inhibition measured after 48 to 72 hrs by steady-glo luciferase assay; type: functional, organism-based; settings: not given

| Structure (SMILES) | EC50 |
| --- | --- |
| Cc1ccc2c(=O)c(O)c(-c3csc4ccccc34)oc2c1 | Not Active |
| COc1ccc2c(=O)c(O)c(-c3csc4ccccc34)oc2c1 | Not Active |
| O=c1c(O)c(-c2csc3ccccc23)oc2ccccc12 | Not Active |

tested on: not listed separately; test: Cytotoxicity against human THP1 cells by MTT assay; type: cell-based, THP-1; settings: not given

| Structure (SMILES) | CC50 [µM] |
| --- | --- |
| Cc1csc(-c2oc3ccc(C)cc3c(=O)c2O)c1 | > 100 |
| COc1ccc2c(=O)c(O)c(-c3cc(C)cs3)oc2c1 | 25 to 50 |
| Cc1ccc2oc(-c3ccc(C)s3)c(O)c(=O)c2c1 | 25 to 50 |
| Cc1ccc2c(=O)c(O)c(-c3csc4ccccc34)oc2c1 | 50 to 100 |
| COc1ccc2c(=O)c(O)c(-c3ccc4c(c3)OCO4)oc2c1 | > 100 |
| COc1ccc2c(=O)c(O)c(-c3csc4ccccc34)oc2c1 | 25 to 50 |
| O=c1c(O)c(-c2csc3ccccc23)oc2ccccc12 | < 25 |
